Data set [1] concerns EV-D68 viral capsid protein VP1 expression. In words: Immunofluorescence imaging of viral capsid protein VP1 in infected RD cells. Type of data set: cell-based. The conditions noted are these: 9 hpi; for VP1 protein expression (immunofluorescence imaging): 1 μM, US/KY/14-18953, MOI = 1.
Data set [2] has as its system sodium channels. As to conditions: from 2 μM to 50 μM, rat DRG neurons, overnight incubation, veratridine 30 μM.
The test system of data set [3] is EV-D68 viral capsid protein VP1 expression. Briefly: Western blot of viral capsid protein VP1 in infected RD cells. Type of data set: cell-based. The conditions noted are these: 9 hpi, US/KY/14-18953, MOI = 1. For orientation: Immunoblotting shows a protein as a band on a membrane.
Data set [4] relates to EV-D68 US/KY/14-18953 virus. Briefly: Viral CPE assay, EV-D68 US/KY/14-18953 in RD cells. Type of data set: cell-based, enterovirus D68 (EV-D68). The conditions noted are these: EV-D68 US/KY/14-18953, RD cells.

Here are results for 4 molecules from article PMC8055447 (Journal of medicinal chemistry, 2019).

For `CN(C)CCNC(=O)c1cc(-c2ccccc2)nc2ccccc12` [Compound 10a, N-[2-(dimethylamino)ethyl]-2-phenylquinoline-4-carboxamide], the “VP1 protein expression (immunofluorescence imaging)” value (from here on “VP1 protein expression”) in data set [1] was “completely blocked”. In data set [2], the “inhibition of sodium current conductance” value is reported as “minimal to no effect”. Further, the “VP1 expression (western blot)” value in data set [3] (1 μM) is “completely blocked”.

With `CN(C)CCNC(=O)c1cc(-c2cccs2)nc2ccccc12` [Compound 12a, N-[2-(dimethylamino)ethyl]-2-(thiophen-2-yl)quinoline-4-carboxamide], in data set [1], the “VP1 protein expression” value is “completely blocked”. Also, the “SI (selectivity index, CC50/EC50)” value in data set [4] is over 600. In data set [3] (1 μM), the “VP1 expression (western blot)” value is recorded as “completely blocked”.

Take `O=C(NCCN1CCCC1)c1cc(-c2cccs2)nc2ccccc12` [Compound 12c, N-[2-(pyrrolidin-1-yl)ethyl]-2-(thiophen-2-yl)quinoline-4-carboxamide]: the “VP1 protein expression” value in data set [1] was “completely blocked”. In addition, the “SI (selectivity index, CC50/EC50)” value in data set [4] is over 600. Also, the “VP1 expression (western blot)” value in data set [3] (1 μM) is listed as “completely blocked”.

Regarding `CCCCOc1cc(C(=O)NCCN(CC)CC)c2ccccc2n1` [Dibucaine, dibucaine, reference compound], in data set [1] (3 μM, US/KY/14-18953, MOI = 1, vs DMSO control), the “fluorescent signal of VP1 (immunofluorescence imaging)” value is on record as “significantly reduced”. For the same molecule, the “VP1 expression (western blot)” value in data set [3] (3 μM) was “nearly completely inhibited”.
